Assay [1] can be described thus: Nitrosamine formation during oxidation of dodecyldimethylamine with hydrogen peroxide under metal stress conditions, CDTMPA chelant, with free radical scavenger. The conditions noted are these: for Nitrosamine content, total: MDNA + NDMA; for Nitrosamine content, total / Nitrosamine content, MDNA / Nitrosamine content, NDMA: 2.0 mmoles scavenger, CDTMPA, 60° C. then 75° C., total 4 hours; for Nitrosamine content, MDNA: methyldodecylnitrosamine; for Nitrosamine content, NDMA: nitrosodimethylamine; for reduction in nitrosamine formation: mixture already containing phosphonic acid chelating agent (CDTMPA), in words. The protocol:
This Comparison and these Examples were each carried out using the following general method:-Dodecyldimethylamine (0.2012 moles, 42.94 g), and sufficient pure water to 150 g, ie approximately 106.9 g, were charged into a passivated 250 mL reaction flask, at ambient temperature together with 0.16 g of the stock metal solution described below to introduce 0.011 mmoles of transition metal impurities and thereby create stress conditions. […]
(§1) The stock metal solution was obtained by dissolving CuSO4.5H2O, 0.393 g, MnSO4.H2O, 0.1475 g, K2CrO4, 0.0935 g, Fe(NH4)2(SO4)2.6H2O, 3.5106 g, AlK(SO4)2.12H2O, 8.791 g in 500 mL water (deionized) containing 20 mL of 10%w/w sulfuric acid solution. It contained a total of 2350 ppm metals concentration. Thus, the concentration of metals in the reaction mixture was about 2.3 ppm.
(§2) The reaction mixture was then heated to a temperature of 60° C. and stirred. An aqueous hydrogen peroxide solution, 50% w/w solution, stabilized by sodium pyrophosphate at 70 ppm calculated as PO4, 15.03 g, was then delivered into the reaction mixture at a constant slow rate during the subsequent 45 minutes. In the Examples, but not in the Comparison, the hydrogen peroxide solution also contained 2.0 mmoles of a free radical scavenger, as specified below. When all the hydrogen peroxide had been introduced, the reaction temperature was increased to 75° C. and the reaction permitted to continue for a total of 4 hours. The mixture was then cooled and analyzed for yield of amine oxide and for the production of by-product volatile nitrosamines, specifically methyldodecylnitrosamine (MDNA) and nitrosodimethylamine (NDMA).

The nature of assay [2]: Nitrosamine formation during oxidation of dodecyldimethylamine with hydrogen peroxide under metal stress conditions, DTPA chelant, with free radical scavenger. The conditions noted are these: for Nitrosamine content, total: MDNA + NDMA; for Nitrosamine content, total / Nitrosamine content, MDNA / Nitrosamine content, NDMA: 2.0 mmoles scavenger, DTPA 0.043 mmoles, 60° C. then 75° C., total 4 hours; for Nitrosamine content, MDNA: methyldodecylnitrosamine; for Nitrosamine content, NDMA: nitrosodimethylamine; for reduction in nitrosamine formation: mixture already containing carboxylate chelating agent (DTPA), in words. The protocol:
This Comparison and these Examples were each carried out using the following general method:-Dodecyldimethylamine (0.2012 moles, 42.94 g), and sufficient pure water to 150 g, ie approximately 106.9 g, were charged into a passivated 250 mL reaction flask, at ambient temperature together with 0.16 g of the stock metal solution described below to introduce 0.011 mmoles of transition metal impurities and thereby create stress conditions. A chelating agent, DTPA, viz diethylenetriaminepentacarboxylic acid, 0.043 mmoles, was then introduced into the mixture to provide a mole ratio to the metal of about 4:1.
as §1, §2
The free radical scavengers were respectively 2,6-di-tert-butyl-4-methylphenol (BHT) in Ex2, butylated hydroxyanisole, a mixture of 2-tert-butylmethoxy anisole and 3-tert-butylmethoxy anisole (BHA) in Ex3, ethyl gallate (EtG) in Ex4 and propyl gallate (PrG) in Ex5.

Take `Cc1cc(C(C)(C)C)c(O)c(C(C)(C)C)c1` [BHT, 2,6-di-tert-butyl-4-methylphenol]: in assay [1], the “Nitrosamine content, total” value is reported as 335 ppb; the “Nitrosamine content, MDNA” value came to 212 ppb; the “Nitrosamine content, NDMA” value is 123 ppb. For the same compound, in assay [2], the “Nitrosamine content, total” value came out at 1794 ppb; the “Nitrosamine content, MDNA” value amounted to 1420 ppb; the “Nitrosamine content, NDMA” value was determined as 374 ppb.

Turning to `O=C(O)CCSCCC(=O)O` [TPA, thiodipropionic acid], in assay [1], the “Nitrosamine content, total” value was 541 ppb; the “Nitrosamine content, MDNA” value amounted to 444 ppb; the “Nitrosamine content, NDMA” value is 97 ppb.

For `COc1ccc(O)c(C(C)(C)C)c1` [BHA, butylated hydroxyanisole], in assay [1], the “Nitrosamine content, total” value was 276 ppb; the “Nitrosamine content, MDNA” value was determined as 151 ppb; the “Nitrosamine content, NDMA” value stood at 125 ppb. In assay [2], the “Nitrosamine content, total” value was 779 ppb; the “Nitrosamine content, MDNA” value is recorded as 652 ppb; the “Nitrosamine content, NDMA” value amounted to 127 ppb.

On to `CCOC(=O)c1cc(O)c(O)c(O)c1` [EtG, ethyl gallate], for which, in assay [1], the “Nitrosamine content, total” value came out at 87 ppb; the “Nitrosamine content, MDNA” value was found to be 57 ppb; the “reduction in nitrosamine formation” value is reported as “marked reduction in nitrosamine formation”; the “Nitrosamine content, NDMA” value came to 30 ppb. In assay [2], the “Nitrosamine content, total” value is listed as 407 ppb; the “Nitrosamine content, MDNA” value is recorded as 334 ppb; the “reduction in nitrosamine formation” value is “marked reduction in nitrosamine formation”; the “Nitrosamine content, NDMA” value is 73 ppb.

Take `CCCOC(=O)c1cc(O)c(O)c(O)c1` [PrG, propyl gallate]: in assay [1], the “Nitrosamine content, total” value worked out at 80 ppb; the “Nitrosamine content, MDNA” value came out at 59 ppb; the “reduction in nitrosamine formation” value was “marked reduction in nitrosamine formation”; the “Nitrosamine content, NDMA” value is recorded as 21 ppb. Also, in assay [2], the “Nitrosamine content, total” value worked out at 308 ppb; the “Nitrosamine content, MDNA” value came to 230 ppb; the “reduction in nitrosamine formation” value was “marked reduction in nitrosamine formation”; the “Nitrosamine content, NDMA” value was determined as 78 ppb.

For the compound `CCC(C)O` (stereo not shown) [BuL, 2-butanol], in assay [1], the “Nitrosamine content, total” value is 1261 ppb; the “Nitrosamine content, MDNA” value worked out at 582 ppb; the “Nitrosamine content, NDMA” value was 679 ppb.

Source of the values: patent US5324857A, “Inhibition of the formation of nitrosamines” (Solvay Interox, priority 1992, dated 1994).
